In one test the target is T1, NPY Y1 receptor (Homo sapiens, UniProt P25929).
T1 construct: SK-N-MC cells endogenously expressing Y1; host or cells: SK-N-MC
T1 sequence (P25929 1-384): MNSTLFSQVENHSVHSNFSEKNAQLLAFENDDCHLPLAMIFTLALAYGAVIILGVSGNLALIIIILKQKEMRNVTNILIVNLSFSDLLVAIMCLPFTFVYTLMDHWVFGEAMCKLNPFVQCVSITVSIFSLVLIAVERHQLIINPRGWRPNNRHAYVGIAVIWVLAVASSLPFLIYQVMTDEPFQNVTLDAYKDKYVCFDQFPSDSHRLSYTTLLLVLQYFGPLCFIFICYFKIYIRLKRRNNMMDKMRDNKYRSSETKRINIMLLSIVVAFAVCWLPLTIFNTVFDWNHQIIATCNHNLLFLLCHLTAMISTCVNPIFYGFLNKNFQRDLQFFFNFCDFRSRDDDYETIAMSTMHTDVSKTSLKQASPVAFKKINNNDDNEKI
As to the kind of experiment: Receptor autoradiography competition binding (125I-hPYY) on SK-N-MC cell membrane pellet sections. As to conditions: for IC50: SK-N-MC membrane pellets, 125I-hPYY displacement, mean ± SEM, n ≥ 3, read-out: Binding affinity Y1 (IC50). As for the experimental part: (§1) The neuroepithelioma cell line SK-N-MC endogenously expressing the NPY Y1 receptor was obtained from ATCC (HTB-10; LGC Standards, Teddington, Middlesex, UK) and cultured at 37°C and 5% CO2 in MEM with GlutaMax I and supplemented with 10% FBS, 100 U/ml penicillin and 100 μg/ml streptomycin, 1 mM MEM sodium pyruvate, and MEM non-essential amino acids (× 1). The neuroblastoma cell line SH-SY5Y endogenously expressing the NPY Y2 receptor, kindly provided by Dr. Paolo Paganetti (Novartis, Basel, Switzerland), was cultured at 37°C and 5% CO2 in MEM/Ham's F12 with GlutaMax I and supplemented with 10% FBS, 100 U/ml penicillin and 100 μg/ml streptomycin, 1 mM MEM sodium pyruvate, and MEM non-essential amino acids (× 1). All culture reagents were from Gibco BRL, Life Technologies, (Grand Island, NY, USA).
(§2) Binding affinities of the compounds were assessed using sections of cell membrane pellets of SK-N-MC for Y1 or SH-SY5Y for Y2, as described before. Briefly, membrane pellets were prepared and stored at -80°C, and receptor autoradiography was performed on 20-μm-thick cryostat (Microm HM 500, Walldorf, Germany) sections of the membrane pellets, mounted on microscope slides and stored at -20°C as previously described for other cell lines and receptors. The slides were preincubated in Krebs-Ringer solution (NaCl 119 mM, KCl 3.2 mM, KH2PO4 1.19 mM, MgSO4 1.19 mM, NaHCO3 25 mM, CaCl2 2.53 mM, D-glucose 10 mM; pH 7.4) for 60 min at room temperature. Then, they were incubated for 120 min in the incubation solution containing the Krebs-Ringer solution, 0.1% BSA, 0.05% bacitracin, and 10,000 cpm/100 μl of the ^125I-labeled human PYY (hPYY; 2,000 Ci/mmol; Anawa, Wangen, Switzerland). Membrane pellet sections were incubated with ^125I-hPYY in increasing concentrations ranging from 0.1 nM up to 1,000 nM of non-labeled hPYY, as control, or with the compounds to be tested. After the incubation, the slides were washed two times for 5 min and then rinsed four times in ice-cold preincubation solution. After drying, the slides were exposed to Kodak films Biomax MR® for 7 days. IC50 values were calculated after quantification of the data using a computer-assisted image processing system (Analysis Imaging System, Interfocus, Mering, Germany). Tissue standards (autoradiographic [^125I] and/or [^14C] microscales, GE Healthcare, Little Chalfont, UK) containing a known amount of isotope, cross-calibrated to tissue-equivalent ligand concentrations were used for quantification.

For the next test, the target named is T2, NPY Y2 receptor (Homo sapiens, UniProt P49146).
T2 construct: SH-SY5Y cells endogenously expressing Y2; endogenous in cells; host or cells: SH-SY5Y
T2 sequence (P49146 1-381): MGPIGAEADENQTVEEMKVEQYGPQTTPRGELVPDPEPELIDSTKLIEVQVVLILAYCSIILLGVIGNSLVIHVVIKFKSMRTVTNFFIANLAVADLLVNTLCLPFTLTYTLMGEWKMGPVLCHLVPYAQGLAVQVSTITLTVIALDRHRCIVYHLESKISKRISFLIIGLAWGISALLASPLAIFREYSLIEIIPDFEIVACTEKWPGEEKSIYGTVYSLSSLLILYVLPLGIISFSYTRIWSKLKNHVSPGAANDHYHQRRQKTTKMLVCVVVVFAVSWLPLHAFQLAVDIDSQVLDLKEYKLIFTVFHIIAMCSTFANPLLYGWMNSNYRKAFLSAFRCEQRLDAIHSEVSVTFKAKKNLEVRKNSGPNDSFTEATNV
As to the kind of experiment: Receptor autoradiography competition binding (125I-hPYY) on SH-SY5Y cell membrane pellet sections. The conditions noted are these: SH-SY5Y membrane pellets, 125I-hPYY displacement; n ≥ 3; read-out: Binding affinity Y2 (IC50). As for the experimental part: as §1, §2

Bridge positions count the residues as written; N and C are the ends. Square brackets hold non-standard residues; d marks the D form. Peptide text beside a SMILES is read from it. I, II: the chains in the order shown. * marks the point of attachment. DOTA = O=C(O)CN1CCN(CC(=O)O)CCN(CC(=O)*)CCN(CC(=O)O)CC1; Nle = CCCC[C@H](N)C(=O)O; Dap = NC[C@H](N)C(=O)O A value given as a limit tells only on which side of the number the result lay.

Take `CC[C@H](C)[C@H](N)C(=O)N[C@@H](CC(N)=O)C(=O)N1CCC[C@H]1C(=O)N[C@@H](CSSC[C@H](NC(=O)[C@@H]1CCCN1C(=O)[C@H](CC(N)=O)NC(=O)[C@@H](N)[C@@H](C)CC)C(=O)N[C@@H](Cc1ccc(O)cc1)C(=O)N[C@@H](CCCNC(=N)N)C(=O)N[C@@H](CC(C)C)C(=O)N[C@@H](CCCNC(=N)N)C(=O)N[C@@H](Cc1ccc(O)cc1)C(N)=O)C(=O)N[C@@H](Cc1ccc(O)cc1)C(=O)N[C@@H](CCCNC(=N)N)C(=O)N[C@@H](CC(C)C)C(=O)N[C@@H](CCCNC(=N)N)C(=O)N[C@@H](Cc1ccc(O)cc1)C(N)=O` [Analog 1, Bis(31/31')[Pro^30, Cys^31, Tyr^32, Leu^34]NPY(28-36)-NH2, reference compound] (I: H-INPCYRLRY-NH2 / II: H-INPCYRLRY-NH2; disulfide I:4-II:4): the half-maximal inhibitory concentration (IC50) (as a rule, the concentration that inhibits the measured activity by half) on NPY Y1 receptor is 11 ± 7 nM; on NPY Y2 receptor it was over 1000 nM.
On the same counts, the results for `CC[C@H](C)[C@H](NC(=O)CN1CCN(CC(=O)O)CCN(CC(=O)O)CCN(CC(=O)O)CC1)C(=O)N[C@@H](CC(N)=O)C(=O)N1CCC[C@H]1C(=O)N[C@@H](CSSC[C@H](NC(=O)[C@@H]1CCCN1C(=O)[C@H](CC(N)=O)NC(=O)[C@@H](NC(=O)CN1CCN(CC(=O)O)CCN(CC(=O)O)CCN(CC(=O)O)CC1)[C@@H](C)CC)C(=O)N[C@@H](Cc1ccc(O)cc1)C(=O)N[C@@H](CCCNC(=N)N)C(=O)N[C@@H](CC(C)C)C(=O)N[C@@H](CCCNC(=N)N)C(=O)N[C@@H](Cc1ccc(O)cc1)C(N)=O)C(=O)N[C@@H](Cc1ccc(O)cc1)C(=O)N[C@@H](CCCNC(=N)N)C(=O)N[C@@H](CC(C)C)C(=O)N[C@@H](CCCNC(=N)N)C(=O)N[C@@H](Cc1ccc(O)cc1)C(N)=O` [Analog 2] (I: {DOTA}-INPCYRLRY-NH2 / II: {DOTA}-INPCYRLRY-NH2; disulfide I:4-II:4) are 143 ± 37 nM and over 1000 nM.
`CCCC[C@H](NC(=O)[C@H](CCCNC(=N)N)NC(=O)[C@H](Cc1c[nH]c2ccccc12)NC(=O)[C@H](CSSC[C@H](NC(=O)[C@@H]1CCCN1C(=O)[C@H](CC(N)=O)NC(=O)[C@@H](N)[C@@H](C)CC)C(=O)N[C@@H](Cc1c[nH]c2ccccc12)C(=O)N[C@@H](CCCNC(=N)N)C(=O)N[C@@H](CCCC)C(=O)N[C@@H](CCCNC(=N)N)C(=O)N[C@@H](Cc1ccc(O)cc1)C(N)=O)NC(=O)[C@@H]1CCCN1C(=O)[C@H](CC(N)=O)NC(=O)[C@@H](N)[C@@H](C)CC)C(=O)N[C@@H](CCCNC(=N)N)C(=O)N[C@@H](Cc1ccc(O)cc1)C(N)=O` [Analog 3] (I: H-INPCWR[Nle]RY-NH2 / II: H-INPCWR[Nle]RY-NH2; disulfide I:4-II:4): the half-maximal inhibitory concentration (IC50) on NPY Y1 receptor was 9 ± 3 nM; on NPY Y2 receptor it was over 1000 nM.
As to `CCCC[C@H](NC(=O)[C@H](CCCNC(=N)N)NC(=O)[C@H](Cc1c[nH]c2ccccc12)NC(=O)[C@H](CSSC[C@H](NC(=O)[C@@H]1CCCN1C(=O)[C@H](CC(N)=O)NC(=O)[C@@H](NC(=O)CN1CCN(CC(=O)O)CCN(CC(=O)O)CCN(CC(=O)O)CC1)[C@@H](C)CC)C(=O)N[C@@H](Cc1c[nH]c2ccccc12)C(=O)N[C@@H](CCCNC(=N)N)C(=O)N[C@@H](CCCC)C(=O)N[C@@H](CCCNC(=N)N)C(=O)N[C@@H](Cc1ccc(O)cc1)C(N)=O)NC(=O)[C@@H]1CCCN1C(=O)[C@H](CC(N)=O)NC(=O)[C@@H](NC(=O)CN1CCN(CC(=O)O)CCN(CC(=O)O)CCN(CC(=O)O)CC1)[C@@H](C)CC)C(=O)N[C@@H](CCCNC(=N)N)C(=O)N[C@@H](Cc1ccc(O)cc1)C(N)=O` [Analog 4] (I: {DOTA}-INPCWR[Nle]RY-NH2 / II: {DOTA}-INPCWR[Nle]RY-NH2; disulfide I:4-II:4), the results for the IC50 at NPY Y1 receptor and on NPY Y2 receptor were 294 ± 33 nM and over 1000 nM, respectively.
For the compound `CCCC[C@H](NC(=O)[C@H](CCCNC(=N)N)NC(=O)[C@H](Cc1c[nH]c2ccccc12)NC(=O)[C@H](CSSC[C@H](NC(=O)[C@@H]1CCCN1C(=O)[C@H](CN)NC(=O)[C@@H](N)[C@@H](C)CC)C(=O)N[C@@H](Cc1c[nH]c2ccccc12)C(=O)N[C@@H](CCCNC(=N)N)C(=O)N[C@@H](CCCC)C(=O)N[C@@H](CCCNC(=N)N)C(=O)N[C@@H](Cc1ccc(O)cc1)C(N)=O)NC(=O)[C@@H]1CCCN1C(=O)[C@H](CN)NC(=O)[C@@H](N)[C@@H](C)CC)C(=O)N[C@@H](CCCNC(=N)N)C(=O)N[C@@H](Cc1ccc(O)cc1)C(N)=O` [Analog 5] (I: H-I[Dap]PCWR[Nle]RY-NH2 / II: H-I[Dap]PCWR[Nle]RY-NH2; disulfide I:4-II:4), the results for the IC50 at NPY Y1 receptor and at NPY Y2 receptor were 143 ± 20 nM and over 1000 nM, respectively.
In the case of `CCCC[C@H](NC(=O)[C@H](CCCNC(=N)N)NC(=O)[C@H](Cc1c[nH]c2ccccc12)NC(=O)[C@H](CSSC[C@H](NC(=O)[C@@H]1CCCN1C(=O)[C@H](CNC(=O)CN1CCN(CC(=O)O)CCN(CC(=O)O)CCN(CC(=O)O)CC1)NC(=O)[C@@H](N)[C@@H](C)CC)C(=O)N[C@@H](Cc1c[nH]c2ccccc12)C(=O)N[C@@H](CCCNC(=N)N)C(=O)N[C@@H](CCCC)C(=O)N[C@@H](CCCNC(=N)N)C(=O)N[C@@H](Cc1ccc(O)cc1)C(N)=O)NC(=O)[C@@H]1CCCN1C(=O)[C@H](CNC(=O)CN1CCN(CC(=O)O)CCN(CC(=O)O)CCN(CC(=O)O)CC1)NC(=O)[C@@H](N)[C@@H](C)CC)C(=O)N[C@@H](CCCNC(=N)N)C(=O)N[C@@H](Cc1ccc(O)cc1)C(N)=O` [Analog 6] (I: H-I[Dap](DOTA)PCWR[Nle]RY-NH2 / II: H-I[Dap](DOTA)PCWR[Nle]RY-NH2; disulfide I:4-II:4), the 50% inhibitory concentration (IC50) at NPY Y1 receptor and at NPY Y2 receptor was over 1000 nM throughout.
For `CCCC[C@H](NC(=O)[C@H](CCCNC(=N)N)NC(=O)[C@H](Cc1c[nH]c2ccccc12)NC(=O)[C@H](CSSC[C@H](NC(=O)[C@@H]1CCCN1C(=O)[C@H](CC(N)=O)NC(=O)[C@@H](N)[C@@H](C)CC)C(=O)N[C@@H](Cc1c[nH]c2ccccc12)C(=O)N[C@@H](CCCNC(=N)N)C(=O)N[C@@H](CCCC)C(=O)N[C@@H](CCCNC(=N)N)C(=O)N[C@@H](Cc1ccc(O)cc1)C(N)=O)NC(=O)[C@@H]1CCCN1C(=O)[C@H](CN)NC(=O)[C@@H](N)[C@@H](C)CC)C(=O)N[C@@H](CCCNC(=N)N)C(=O)N[C@@H](Cc1ccc(O)cc1)C(N)=O` [Analog 7] (I: H-I[Dap]PCWR[Nle]RY-NH2 / II: H-INPCWR[Nle]RY-NH2; disulfide I:4-II:4), the concentration for half-maximal inhibition (IC50) at NPY Y1 receptor is 19 ± 5 nM; on NPY Y2 receptor, over 1000 nM.
For the compound “hPYY: non-labeled human peptide YY, used as control in the binding assay [reference compound]”, the “Y1 binding affinity in words (displacement of 125I-hPYY)” value in the test with NPY Y1 receptor (SK-N-MC cell membrane pellet sections) was “high-affinity displacements of ^125I-hPYY”.
